# Earlier results in patent US20240207338A1, “KETAMINE AND CANNABIS FOR THE TREATMENT OF EMOTIONAL DISORDERS” (Progressive Therapeutics Inc, priority 2021, published 2024).
SMILES,potency for use in anesthesia relative to ketamine (versus ketamine),potency for use in anesthesia relative to R-(−)-ketamine (versus R-(−)-ketamine)
NC1(c2ccccc2Cl)CCCCC1=O (centres unmarked) [norketamine],one third the potency,–
CN[C@]1(c2ccccc2Cl)CCCCC1=O [S-(+)-ketamine],–,twice as potent
